In a melting point compilation (Tetko et al.; mined from patent text by program, amines drawn as free bases though some values may be those of a salt):

| Structure (SMILES) | melting point [°C] |
| --- | --- |
| COc1ccc(OCCCC2CCN(c3ccc(Cl)nn3)CC2)c(Cl)c1 | 101 |
| COc1ccc(C2CNC(=O)C2)cc1OS(=O)(=O)C(F)(F)F (configuration not stated) | 99 to 101 |
| O=C(NCc1ccccc1)c1ccnc(NC(=O)c2ccccc2)c1 | 174 to 176 |
| CCCOc1ccccc1-c1nc2c(C=CCc3ccccc3)cccc2c(=O)[nH]1 | 123 to 126 |
| CC(C(N)=O)N1CCN(c2ccccn2)CC1 (configuration not stated) | 130 to 132 |
| Cc1nc2c3c(ccc2[nH]1)[C@H]1OCCO[C@@H]1[C@@H](c1ccccc1)O3 | 260 |
| CCCCNC(=N)c1ccc2[nH]c(=O)[nH]c2c1 | 168 |
| CCC(=NOCCO)c1ccc(-c2ccccc2)cc1 | 76 |
| Cc1ccc(C)c(NC(=O)CCc2ccc(O)c(N)c2)c1 | 162 to 163 |
| O=C(Nc1nc(C(F)(F)F)co1)C1c2ccc(F)cc2Oc2cc(F)ccc21 | 265 |
| Cc1noc2cc(N3CCOCC3)ccc12 | 138 to 140 |
| CSc1cccc(-c2ccccc2)c1S(N)(=O)=O | 167 to 168 |
| Cc1ccc(C(=O)c2cc(CN3CCOCC3)c(O)c(C(C)(C)C)c2)cc1 | 131 to 133 |
| C=CCNc1nc(C=O)cs1 | 106 to 107 |
| CC1(C)CC(NCCCCCCC(=O)O)CC(C)(C)N1 | 162 to 165 |
| O=C1c2c(Br)cccc2-n2cnc(I)c2[C@@H]2CCCN12 | 301 to 303 |
| O=C(O)C[C@H](NC(=O)OCc1ccccc1)C(=O)Nc1cc(Cc2n[nH]c(=O)c3ccccc23)ccc1F | 188 to 190 |
| Cc1c(C)c2c(c(C)c1OCc1ccccc1)CCC(C)(CC(=O)O)O2 (configuration not stated) | 91 to 96 |
| O=S(=O)(c1ccc(Cl)cc1)N1CCC2(C=Cc3ccccc32)CC1 | 179 to 181 |
| CC(COc1ccc(CC(=O)O)cc1Cl)NCC(O)c1cccc(Cl)c1 (configuration not stated) | 188 to 192 |

| Structure (SMILES) | melting point [°C] |
| --- | --- |
| COC(=O)Nc1cccc(C(=O)C=CN(C)C)c1 | 210 to 211 |
| N#CC1=C(c2ccccc2)Nc2ccccc2S1=O (configuration not stated) | 182 to 184 |
| Oc1ccc(-c2ncc3ncc(Cl)cc3n2)cc1 | 231 to 232 |
| COc1ccc(CN2C(=O)C(C)(c3cc(NS(C)(=O)=O)ccc3Cl)c3cc(Cl)ccc32)c(OC)c1 (configuration not stated) | 210 |
| COc1cc(O)c2c(c1)C1OC1CC(O)C(O)C(=O)C=CCC(C)OC2=O (configuration not stated) | 173 to 174 |
| OC(c1ccccc1)(c1ccccc1)C(F)(F)C(F)(F)F | 82 to 83 |
| CN1C(=O)C2C3CCC(CC3)C2(c2ccc(F)c(F)c2)C1=O (configuration not stated) | 133 to 136 |
| O=S(=O)(Cc1coc(/C=C/c2ccccc2)n1)c1ccc(CCCn2ccnc2)cc1 | 116 to 117 |
| CC(=O)OCCCCCCSCC(=O)c1ccc2c(c1)CC(=O)N2 | 86 to 87 |
| C[Si](C)(C)CCOC(=O)c1ccc(F)cc1N | 43 to 44 |
| COC1=C(OC)C(=O)C2=C(CCC(CCOc3ccc(C#N)cc3)CC2)C1=O | 105 to 107 |
| CSCc1cccc(-c2nc(=O)c3ccccc3s2)n1 | 152 to 153 |
| COc1ccc2c(c1)c(Cc1cc(=O)n(-c3ccc(Cl)c(Cl)c3)[nH]1)c(C)n2C(=O)c1ccc(Cl)cc1 | 123 to 125 |
| COC(=O)C1=C(C#N)NC(C)=C(C(=O)OCC(C)(C)C)C1c1ccccc1C#N (configuration not stated) | 173 to 174 |
| O=c1c2c(c3cccnc3n1-c1ccccc1)SCC2 | 277 to 279 |
| CNc1nc(-c2ccccc2)ccc1[N+](=O)[O-] | 98 to 99 |
| CC1=CC(=O)CC(C)(C)C1(O)C/C=C(C)/C=C\O (configuration not stated) | 127 to 129 |
| O=C(Nc1ccc(-n2nc(C(F)(F)F)cc2C(F)(F)F)cc1)c1ccc([N+](=O)[O-])cc1 | 185 to 188 |
| COC(=O)CCc1cc(C(C)(C)C)c(OP(Cl)c2ccccc2)c(C(C)(C)C)c1 (configuration not stated) | 86 to 88 |
| Clc1ccc(N2CCN(Cc3cn4cc(Cl)ccc4n3)CC2)cc1 | 145 to 146 |

The next lines start with the values.

| melting point [°C] | Structure (SMILES) |
| --- | --- |
| 221 to 240 | COc1ccc(C(=O)Nc2ccc(F)cc2)cc1NS(=O)(=O)c1cccc([N+](=O)[O-])c1 |
| 109 to 110 | Fc1ccc2c(c1)nc(/C=C/C1CCCCC1)n2-c1ccccn1 |
| 183 | O=C(c1ccc(Cl)cc1)c1ccc2c(c1)Cc1ccccc1-2 |
| 222 to 224 | COc1ccc(-c2cc(C(=O)O)c(=O)n(Cc3ccc(F)cc3)n2)cc1F |
| 312 to 314 | O=C(O)c1ccc(C(=O)O)c(-c2nc3ccccc3[nH]2)c1 |
| 80 to 83 | CCOC(=O)c1sc2cc(COS(C)(=O)=O)ccc2c1S(=O)c1cccc(OC)c1 (configuration not stated) |
| 138 to 140 | CC(C)(C)Nc1nc(NCc2ccccc2)c(C#N)cc1F |
| 114 to 116 | CC(=O)N1C(C)(C)CC(Oc2nc(Cl)nc(N3C(C)(C)CCCC3(C)C)n2)CC1(C)C |
| 154 | COc1cc(-n2c(=O)cc(C(F)(F)F)n(C)c2=O)c(F)cc1Br |
| 193 to 205 | CC(C)C1(C)N=C2c3nc4occc4cc3C(=O)N2C1=O (configuration not stated) |
| 212 to 216 | CCCc1c(C(C)=NO)c2ccc(C(N)=O)cc2n1Cc1ccccc1Cl |
| 268 to 270 | CC1CC(=O)NN=C1c1ccc(Nc2nc(=O)cc[nH]2)cc1 (configuration not stated) |
| 70 to 75 | O=C(Nc1ccc(F)c([N+](=O)[O-])c1)C(F)(F)F |
| 61 to 62 | CCCn1cnc2c1c(=O)n(CCCCOc1ccc(OC)cc1)c(=O)n2C |
| 207 | CC(C)(C)c1cc(CCc2ccccc2NC(=O)Nc2ccccc2)cc(C(C)(C)C)c1O |
| 93 to 94 | CCC(Oc1cc(C)cc(C)c1)C(=O)NCc1ccccc1 (configuration not stated) |

| melting point [°C] | Structure (SMILES) |
| --- | --- |
| 183 to 186 | N#Cc1ccc(Oc2cccc(Oc3ccc(C#N)c(C#N)c3)c2)cc1C#N |
| 124 | COc1cc2c(cc1OC)C(COCCN1CCCCC1)OCCC2 (configuration not stated) |
| 303 to 306 | CC(=O)Nc1ccc(CN2C(=O)[C@H]3CCC[C@H]3N(C(=O)CN3C(=O)c4ccccc4C3=O)c3ccccc32)cc1 (relative stereo) |
| 92 to 93 | CCCCC1=CC(O)(C(Br)Br)N(Cc2ccccc2)C1=O (configuration not stated) |
| > 300 | CNN(NC)C(=O)Nc1cccc2c1C(=O)c1c-2n[nH]c1-c1ccc(OC)cc1 |
| 137 to 138 | CC(=O)Nc1ccc(N)c(C(O)c2ccccc2Cl)c1 (configuration not stated) |
| 266 to 268 | O=S1(=O)c2ccccc2-c2[nH]nc(-c3ccccc3)c21 |
| 136 to 137 | CCC(C)(C)N=C(Nc1cncnc1)c1ccc(Cl)cc1Cl |
| 203 to 205 | CC(C)Nc1cc(=O)n(-c2ccccc2)nc1-c1nc[nH]n1 |
| 154 to 156 | COc1ccc(C(=O)[C@H]2CC=CC[C@H]2C(=O)O)c2c1OC(C)(C)C2 (relative stereo) |
| 216 to 218 | COc1ccc2c(c1)-c1c(C#N)c(N3CCCCC3)c3c(c1C2)-c1ccccc1C3 |
| 123 to 124 | C=C1CC(C)(COc2ccc3ccc(=O)oc3c2)OC1=O (configuration not stated) |
| 109 to 110 | Cc1cn2nc(Cl)cc(C)c2n1 |
| 221 to 223 | COc1cc2c(Nc3ccc(Sc4nccn4C)c(Cl)c3)c(C#N)cnc2cc1N1CCC(N2CCCCC2)CC1 |
| 26 to 28 | CCOC(=O)/C=C/c1cccc(Br)c1 |
| 140 to 142 | Cc1ccc(Cl)cc1N1C(=O)CN=C1SCc1ccccc1 |
